These results are taken from patent publication US12421282B2, “Compositions and methods for the treatment of metabolic and liver disorders” (priority 2021, dated 2025).

Like-named read-outs stand apart in the source and are kept apart here. *1 amine or outer side, *2 acyl side, *3 side chain or, on linkers, in order; H or OH if unused. Where a SMILES comes first, the peptide text is derived from it. Side-chain parts run from the residue outwards. [ ]: non-standard residue; d: D form. The star is where a group is joined. Nonadecanoyl(19-PO3H2) = O=C(CCCCCCCCCCCCCCCCCCP(=O)(O)O)*; γGlu = O=C(O)[C@H](CCC(=O)[*:2])N[*:1]; AEEA = NCCOCCOCC(=O)O; Aib = CC(C)(N)C(=O)O

The target of data set [1] is T1, human recombinant GIP receptor (Homo sapiens, UniProt P48546).
T1 sequence (P48546 22-466): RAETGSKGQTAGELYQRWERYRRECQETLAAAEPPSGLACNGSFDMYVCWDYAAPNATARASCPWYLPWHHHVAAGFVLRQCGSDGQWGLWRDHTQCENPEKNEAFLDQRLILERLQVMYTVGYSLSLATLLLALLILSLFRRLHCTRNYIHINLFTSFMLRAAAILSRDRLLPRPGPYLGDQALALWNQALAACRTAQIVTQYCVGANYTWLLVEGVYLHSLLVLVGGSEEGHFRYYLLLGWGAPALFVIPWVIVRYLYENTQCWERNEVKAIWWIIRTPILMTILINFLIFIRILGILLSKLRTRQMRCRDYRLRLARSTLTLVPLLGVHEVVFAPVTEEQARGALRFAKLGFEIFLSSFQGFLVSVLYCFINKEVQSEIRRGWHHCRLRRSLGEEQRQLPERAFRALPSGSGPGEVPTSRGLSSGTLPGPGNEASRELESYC
Description: TagLite binding assay, GIP receptor, without and with 2% HSA. From the text:
(§1) Binding data for Compounds 15-25, for two human recombinant G protein coupled receptors, GLP-1 and GIP, was obtained using […]® binding assay and Epics Therapeutics cell lines. The binding assay was repeated in the presence of 2% human serum albumin (HSA). Compounds 16, 21, and 22 have an HSA ratio for the GLP-1 receptor of 7.1, 7.6, and 7.8, respectively. Compounds 15, 18, and 23 have an HSA ratio for the GIP receptor of 7.3, 4.3, and 6.4, respectively. A lower HSA ratio indicates greater binding affinity for the receptor than for albumin when compared to a compound with a greater HSA ratio.

Data set [2] addresses human recombinant GLP-1 receptor (Homo sapiens, UniProt P43220). Description: TagLite binding assay, GLP-1 receptor, without and with 2% HSA.
Text: as §1

Details of data set [3]: species or system cynomolgus monkeys. The settings on record: cynomolgus monkey, in vivo, sc, 0.2 mg/kg. The method, then: Subcutaneous (SC) dosing of the compounds in a vehicle of 0.1% bovine serum albumin in phosphate buffered saline solution was performed with male cynomolgus monkeys. […] Samples were obtained at 1, 4, 8, 12, 24, 48, 72, 96, 120, 168, 192, 240 and 336 hours after the single dose was administered.

The mark [4] stands for this setting: 2% human serum albumin, read-out: GIP receptor IC50 2% HSA.
[5] abbreviates: no HSA, read-out: GIP receptor IC50 No HSA.
The mark [6] stands for this setting: 2% human serum albumin, read-out: GLP-1 receptor IC50 2% HSA.
Setting [7] is: no HSA, read-out: GLP-1 receptor IC50 No HSA.

Sequence of human recombinant GLP-1 receptor (P43220 24-463): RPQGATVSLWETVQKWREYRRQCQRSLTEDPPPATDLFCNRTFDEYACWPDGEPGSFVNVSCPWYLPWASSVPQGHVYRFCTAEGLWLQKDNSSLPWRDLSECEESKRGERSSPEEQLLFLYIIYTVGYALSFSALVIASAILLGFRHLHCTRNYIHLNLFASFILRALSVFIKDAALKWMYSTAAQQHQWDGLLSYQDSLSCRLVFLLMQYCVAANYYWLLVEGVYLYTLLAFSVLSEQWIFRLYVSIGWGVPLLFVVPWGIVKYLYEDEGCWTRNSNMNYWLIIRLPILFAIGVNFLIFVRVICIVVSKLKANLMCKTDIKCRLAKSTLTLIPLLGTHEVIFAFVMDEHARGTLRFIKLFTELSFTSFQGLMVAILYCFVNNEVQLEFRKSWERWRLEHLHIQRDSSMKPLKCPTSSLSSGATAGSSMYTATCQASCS

For orientation: IC50 means the point on the concentration scale where inhibition reaches its midpoint. By AUC(0-inf) is commonly meant the area under the concentration-time curve extrapolated to infinity. Read a low AUC(0-inf) as low exposure. As usually defined, the AUC(0-t) is the area under the concentration-time curve up to a stated or last time point. A low value points to less exposure. As usually defined, the Cmax is the peak of the concentration-time curve. For orientation: Tmax means the time from dosing to the highest level. Broadly, the half-life is how long it takes for the measured level to halve. Lower therefore signals fast loss. Turning to `CC[C@H](C)[C@H](NC(=O)[C@H](CC(C)C)NC(=O)[C@H](Cc1c[nH]c2ccccc12)NC(=O)[C@H](CCC(N)=O)NC(=O)[C@@H](NC(=O)[C@H](Cc1ccccc1)NC(=O)[C@H](C)NC(=O)[C@H](CCCCNC(=O)COCCOCCNC(=O)COCCOCCNC(=O)CC[C@H](NC(=O)CCCCCCCCCCCCCCCCCCP(=O)(O)O)C(=O)O)NC(=O)[C@H](CCC(N)=O)NC(=O)[C@H](C)NC(=O)[C@@H](NC(=O)[C@H](CCCCN)NC(=O)[C@H](CC(=O)O)NC(=O)[C@H](CC(C)C)NC(=O)C(C)(C)NC(=O)[C@@H](NC(=O)[C@H](CO)NC(=O)[C@H](Cc1ccc(O)cc1)NC(=O)[C@H](CC(=O)O)NC(=O)[C@H](CO)NC(=O)[C@@H](NC(=O)[C@H](Cc1ccccc1)NC(=O)[C@@H](NC(=O)CNC(=O)[C@H](CCC(=O)O)NC(=O)C(C)(C)NC(=O)[C@@H](N)Cc1ccc(O)cc1)[C@@H](C)O)[C@@H](C)O)[C@@H](C)CC)C(C)C)C(C)C)C(=O)N[C@@H](C)C(=O)NCC(=O)NCC(=O)N1CCC[C@H]1C(=O)N[C@@H](CO)C(=O)N[C@@H](CO)C(=O)NCC(=O)N[C@@H](C)C(=O)N1CCC[C@H]1C(=O)N1CCC[C@H]1C(=O)N1CCC[C@H]1C(=O)N[C@@H](CO)C(N)=O` [Compound 17] (H-Y[Aib]EGTFTSDYSI[Aib]LDKVAQK([AEEA-AEEA-γGlu-Nonadecanoyl(19-PO3H2)])AFVQWLIAGGPSSGAPPPS-NH2), the IC50 in data set [1] (setting [4]) was 4170 nM. In data set [1] (setting [5]), the IC50 was 543 nM. The IC50 in data set [2] (setting [6]) came out at 3740 nM. Further, the IC50 in data set [2] (setting [7]) was determined as 316 nM. For the same compound, in data set [3], the AUC(0-inf) is 286 µg·h/mL, the AUC(0-t) was 254 µg·h/mL, the Cmax amounted to 2300 ng/mL and the Tmax stood at 6.67 h. Moreover, in data set [3], the half-life is 102 h and the “mean half life longer compared to tirzepatide” value is “at least 50%”.
For `CC[C@H](C)[C@H](NC(=O)[C@H](CCCCN)NC(=O)[C@H](CC(=O)O)NC(=O)[C@H](CC(C)C)NC(=O)[C@H](Cc1ccccc1)NC(=O)[C@@H](NC(=O)[C@H](CO)NC(=O)[C@H](Cc1ccc(O)cc1)NC(=O)[C@H](CC(=O)O)NC(=O)[C@H](CO)NC(=O)[C@@H](NC(=O)[C@H](Cc1ccccc1)NC(=O)[C@@H](NC(=O)CNC(=O)[C@H](CCC(=O)O)NC(=O)C(C)(C)NC(=O)[C@@H](N)Cc1ccc(O)cc1)[C@@H](C)O)[C@@H](C)O)[C@@H](C)CC)C(=O)N[C@@H](C)C(=O)N[C@@H](CCC(N)=O)C(=O)N[C@@H](CCCCNC(=O)COCCOCCNC(=O)COCCOCCNC(=O)CC[C@H](NC(=O)CCCCCCCCCCCCCCCCCCP(=O)(O)O)C(=O)O)C(=O)N[C@@H](C)C(=O)N[C@@H](Cc1ccccc1)C(=O)N[C@H](C(=O)N[C@@H](CCC(N)=O)C(=O)N[C@@H](Cc1c[nH]c2ccccc12)C(=O)N[C@@H](CC(C)C)C(=O)N[C@H](C(=O)N[C@@H](C)C(=O)NCC(=O)NCC(=O)N1CCC[C@H]1C(=O)N[C@@H](CO)C(=O)N[C@@H](CO)C(=O)NCC(=O)N[C@@H](C)C(=O)N1CCC[C@H]1C(=O)N1CCC[C@H]1C(=O)N1CCC[C@H]1C(=O)N[C@@H](CO)C(N)=O)[C@@H](C)CC)C(C)C` [Compound 18] (H-Y[Aib]EGTFTSDYSIFLDKIAQK([AEEA-AEEA-γGlu-Nonadecanoyl(19-PO3H2)])AFVQWLIAGGPSSGAPPPS-NH2), in data set [1] (setting [4]), the IC50 is 2850 nM. For the same compound, in data set [1] (setting [5]), the IC50 was determined as 659 nM. In addition, in data set [2] (setting [6]), the IC50 worked out at 1520 nM. In addition, the IC50 in data set [2] (setting [7]) was 166 nM. Also, in data set [3], the AUC(0-inf) was 149 µg·h/mL, the area under the curve AUC(0-t) is 140 µg·h/mL, the Cmax amounted to 1340 ng/mL and the Tmax amounted to 13.3 h. In data set [3], this compound had a half-life of 81.1 h.
Take `CC[C@H](C)[C@H](NC(=O)[C@H](CC(C)C)NC(=O)[C@H](Cc1c[nH]c2ccccc12)NC(=O)[C@H](CCC(N)=O)NC(=O)[C@@H](NC(=O)[C@H](Cc1ccccc1)NC(=O)[C@H](C)NC(=O)[C@H](CCCCNC(=O)COCCOCCNC(=O)COCCOCCNC(=O)CC[C@H](NC(=O)CCCCCCCCCCCCCCCCCCP(=O)(O)O)C(=O)O)NC(=O)[C@H](CCC(N)=O)NC(=O)[C@H](C)NC(=O)[C@@H](NC(=O)[C@H](CCCCN)NC(=O)[C@H](CC(=O)O)NC(=O)[C@H](CC(C)C)NC(=O)[C@H](Cc1ccccc1)NC(=O)[C@@H](NC(=O)[C@H](CO)NC(=O)[C@H](Cc1ccc(O)cc1)NC(=O)[C@H](CC(=O)O)NC(=O)[C@H](CO)NC(=O)[C@@H](NC(=O)[C@H](Cc1ccccc1)NC(=O)[C@@H](NC(=O)CNC(=O)[C@H](CCC(=O)O)NC(=O)C(C)(C)NC(=O)[C@@H](N)Cc1ccc(O)cc1)[C@@H](C)O)[C@@H](C)O)[C@@H](C)CC)C(C)C)C(C)C)C(=O)N[C@@H](C)C(=O)NCC(=O)NCC(=O)N1CCC[C@H]1C(=O)N[C@@H](CO)C(=O)N[C@@H](CO)C(=O)NCC(=O)N[C@@H](C)C(=O)N1CCC[C@H]1C(=O)N1CCC[C@H]1C(=O)N1CCC[C@H]1C(=O)N[C@@H](CO)C(N)=O` [Compound 19] (H-Y[Aib]EGTFTSDYSIFLDKVAQK([AEEA-AEEA-γGlu-Nonadecanoyl(19-PO3H2)])AFVQWLIAGGPSSGAPPPS-NH2): in data set [1] (setting [4]), the IC50 was determined as 4440 nM. Also, the IC50 in data set [1] (setting [5]) amounted to 551 nM. Besides, the IC50 in data set [2] (setting [6]) is 1340 nM. For the same compound, the IC50 in data set [2] (setting [7]) turned out to be 153 nM. Besides, in data set [3], the AUC(0-inf) came out at 175 µg·h/mL, the AUC(0-t) came to 159 µg·h/mL, the peak level (Cmax) was 1240 ng/mL and the Tmax came out at 20 h. For the same compound, in data set [3], the half-life was 96.7 h and the “mean half life longer compared to tirzepatide” value is reported as “at least 50%”.
For `CC[C@H](C)[C@H](NC(=O)[C@H](CCCCN)NC(=O)[C@H](CC(=O)O)NC(=O)[C@H](CC(C)C)NC(=O)C(C)(C)NC(=O)[C@@H](NC(=O)[C@H](CO)NC(=O)[C@H](Cc1ccc(O)cc1)NC(=O)[C@H](CC(=O)O)NC(=O)[C@H](CO)NC(=O)[C@@H](NC(=O)[C@H](Cc1ccccc1)NC(=O)[C@@H](NC(=O)CNC(=O)[C@H](CCC(=O)O)NC(=O)C(C)(C)NC(=O)[C@@H](N)Cc1ccc(O)cc1)[C@@H](C)O)[C@@H](C)O)[C@@H](C)CC)C(=O)N[C@@H](C)C(=O)N[C@@H](CCC(N)=O)C(=O)N[C@@H](CCCCNC(=O)COCCOCCNC(=O)COCCOCCNC(=O)CC[C@H](NC(=O)CCCCCCCCCCCCCCCCCCP(=O)(O)O)C(=O)O)C(=O)N[C@@H](C)C(=O)N[C@@H](Cc1ccccc1)C(=O)N[C@H](C(=O)N[C@@H](CCC(N)=O)C(=O)N[C@@H](Cc1c[nH]c2ccccc12)C(=O)N[C@@H](CC(C)C)C(=O)N[C@H](C(=O)N[C@@H](CCCNC(=N)N)C(=O)NCC(=O)NCC(=O)N1CCC[C@H]1C(=O)N[C@@H](CO)C(=O)N[C@@H](CO)C(=O)NCC(=O)N[C@@H](C)C(=O)N1CCC[C@H]1C(=O)N1CCC[C@H]1C(=O)N1CCC[C@H]1C(=O)N[C@@H](CO)C(N)=O)[C@@H](C)CC)C(C)C` [Compound 20] (H-Y[Aib]EGTFTSDYSI[Aib]LDKIAQK([AEEA-AEEA-γGlu-Nonadecanoyl(19-PO3H2)])AFVQWLIRGGPSSGAPPPS-NH2), the IC50 in data set [1] (setting [4]) worked out at 4420 nM. In addition, the half-inhibitory concentration (IC50) in data set [1] (setting [5]) turned out to be 492 nM. Further, the IC50 in data set [2] (setting [6]) stood at 2050 nM. For the same compound, the IC50 in data set [2] (setting [7]) worked out at 226 nM. Besides, in data set [3], the area under the curve AUC(0-inf) came to 417 µg·h/mL, the exposure AUC(0-t) came to 342 µg·h/mL, the Cmax came to 2060 ng/mL and the Tmax was 13.3 h. In data set [3], the half-life was 132 h, the “mean half life as compared to tirzepatide (in words)” value is on record as “more than twice an long as compared to tirzepatide” and the “mean half life longer compared to tirzepatide” value was “at least 50%”.
